≈ marks a conversion by molar mass, not a printed value.
How the values were obtained:
[1] = mouse; liver_microsomes
[2] = not given; remark: listed apart in the source
[3] = human; liver_microsomes
[4] = mdck_mdr1

## CC(C)[C@H](Nc1ncnc2[nH]c(-c3cnn(CC(=O)N(C)C)c3)cc12)c1ccc2c(c1)OCCO2 (racemic)
[1]
  microsomal CLint: 59 µL/min/mg
other
  logD: 2.3
[2]
  solubility kinetic: 210 µM (≈ 99.9 µg/mL)
[3]
  microsomal CLint: 142 µL/min/mg
[4]
  Papp: 1.14 ×10⁻⁶ cm/s

From the ASAP Discovery antiviral challenge data (2025)
